Reference: ChEMBL document CHEMBL2311297 (Bioorg Med Chem Lett, 2013)
Calls of active or inactive are those of the source. No cut-off for these calls is given here.

What was measured:
[1] = target: Myc proto-oncogene protein (Homo sapiens, UniProt P01106); experiment: Inhibition of recombinant His6-tagged c-Myc bHLH-ZIP domain (353 to 437 amino acid residues) (unknown origin) assessed as disruption of Myc-Max dimerization at 100 uM by electrophoretic mobility shift assay relative to control
Daudi = experiment: Cytotoxicity against human Daudi cells assessed as growth inhibition after 3 to 5 days by MTT assay
HL-60 = experiment: Cytotoxicity against human HL60 cells assessed as growth inhibition after 3 to 5 days by MTT assay
[2] = Binding affinity to 5'-HEX-tagged double standard 22 bp 5'-hexachlorofluoresceine-CACCCGGTCACGTGGCCTACAC-3' (unknown origin) by PAGE analysis
Protein max = Protein max (Homo sapiens, UniProt P61244); experiment: Inhibition of His6-tagged Max (151 amino acid residues) (unknown origin) assessed as disruption of Max-Max dimerization by electrophoretic mobility shift assay
Sequence of Protein max (P61244 whole entry): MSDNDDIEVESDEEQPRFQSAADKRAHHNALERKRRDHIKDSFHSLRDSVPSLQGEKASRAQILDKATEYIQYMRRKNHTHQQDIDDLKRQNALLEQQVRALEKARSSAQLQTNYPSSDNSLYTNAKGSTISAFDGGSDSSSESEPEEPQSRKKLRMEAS

Sequence of Myc proto-oncogene protein (P01106 whole entry, the tested form may be a part): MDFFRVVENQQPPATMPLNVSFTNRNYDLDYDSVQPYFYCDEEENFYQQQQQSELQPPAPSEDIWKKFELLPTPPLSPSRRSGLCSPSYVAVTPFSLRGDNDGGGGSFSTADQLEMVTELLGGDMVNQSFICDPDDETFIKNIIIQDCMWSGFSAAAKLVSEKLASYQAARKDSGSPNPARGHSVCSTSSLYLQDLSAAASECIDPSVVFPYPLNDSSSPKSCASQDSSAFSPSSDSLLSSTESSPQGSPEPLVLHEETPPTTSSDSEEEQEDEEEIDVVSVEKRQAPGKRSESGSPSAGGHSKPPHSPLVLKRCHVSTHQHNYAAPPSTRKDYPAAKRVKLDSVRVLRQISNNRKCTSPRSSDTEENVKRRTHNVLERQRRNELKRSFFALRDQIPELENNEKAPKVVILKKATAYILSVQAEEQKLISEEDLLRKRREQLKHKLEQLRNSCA

SMILES | inhibition [1] [%] | further results
COC(=O)Nc1ccc(Nc2ccccc2-c2ccccc2)c2nonc12 | 0 | 
O=[N+]([O-])c1ccc(Nc2ccccc2-c2ccccc2)cc1 | 0 | 
O=C(O)c1ccc(Nc2ccc([N+](=O)[O-])c3nonc23)cc1 | 93 | IC50 (Daudi): 56 µM; IC50 (HL-60): 184 µM; Activity [2]: inactive; IC50 (Protein max): > 100 µM
O=[N+]([O-])c1ccc(Nc2ccccc2Br)c2nonc12 | 39 | 
O=C(Nc1ccc(Nc2ccccc2-c2ccccc2)c2nonc12)C(F)(F)F | 25 | 
O=[N+]([O-])c1ccc(Nc2ccccc2-c2ccccc2)c2nonc12 | 38 | IC50 (Daudi): 10 µM; IC50 (HL-60): 30 µM
O=[N+]([O-])c1ccc(Nc2ccccc2O)c2nonc12 | 13 | 
Cc1ccc(Nc2ccc([N+](=O)[O-])c3nonc23)cc1 | 0 | 
O=[N+]([O-])c1ccc(NCc2ccccc2)c2nonc12 | 0 | 
O=C(O)COCC(=O)Nc1ccc(Nc2ccccc2-c2ccccc2)c2nonc12 | 33 | 
COc1ccccc1Nc1ccc([N+](=O)[O-])c2nonc12 | 0 | 
O=[N+]([O-])c1ccc(N2CCCCC2)c2nonc12 | 10 | 
O=[N+]([O-])c1ccc(NC2CCCCC2)c2nonc12 | 11 | 

More lines, main results first:

inhibition [1] [%] | SMILES | further results
36 | O=[N+]([O-])c1ccc(Oc2ccccc2-c2ccccc2)c2nonc12 | 
17 | O=C(O)CCC(=O)Nc1ccc(Nc2ccccc2-c2ccccc2)c2nonc12 | 
11 | Cc1ccccc1Nc1ccc([N+](=O)[O-])c2nonc12 | 
2 | O=[N+]([O-])c1ccc(Nc2ccccc2)c2nonc12 | 
2 | CC(=O)Nc1ccc(Nc2ccccc2-c2ccccc2)c2nonc12 | 
8 | O=C(O)c1ccccc1Nc1ccc([N+](=O)[O-])c2nonc12 | 
20 | O=[N+]([O-])c1ccc(Nc2cccc(-c3ccccc3)c2)c2nonc12 | 
0 | O=C(O)c1cccc(Nc2ccc([N+](=O)[O-])c3nonc23)c1 | 
28 | O=[N+]([O-])c1ccc(Nc2ccc(-c3ccccc3)cc2)c2nonc12 | 
